Reference: EP0398621A2, “Immunoassay of elastase-1” (SHIONOGI SEIYAKU KABUSHIKI KAISHA trading under the name of …, priority 1989, dated 1990)

What was measured:
[1] = system: ¹²⁵I-labelled E1; experiment: Radioimmunoassay: effect of α₁-antitrypsin or α₂-macroglobulin on the binding rate of anti-E1 serum with ¹²⁵I-labelled E1; set-up: species or system human
Experimental: (§1) As for measuring buffer solution, 0.01 M phosphate buffer (pH 7.4) containing 0.1 mM Boc-TACK, 0.9% sodium chloride, 0.05% sodium azide and 0.2% bovine serum albumin was used unless otherwise mentioned. One hundred µl of standard E1 solution (0.5 - 50ng/ml) or sample serum was taken into a polystyrene tube. To this were added 100 µl each of ¹²⁵I-labelled E1 solution and anti-E1 serum, which was then mixed and incubated for 3 hours at 37°C. Next, 500 µl of the preparation of the second antibody was added, which was mixed and incubated for 30 minutes at 37°C. The incubated product was centrifuged (3000 rpm, 5 minutes), after which the supernatant was removed by suction and the radioactivity of the precipitate was measured.
Radioimmunoassay was performed using α₁-antitrypsin or α₂-macroglobulin solution in place of the standard E1 solution, whereby the effect of these on the binding rate was examined. As for measuring buffer solution, one mentioned in above-mentioned (7) was used in one method (A method), and one not containing Boc-TACK was used in another method (B method), and one containing PMSF in place of Boc-TACK was used in third method (C method) (Fig. 2).

[2] = system: ¹²⁵I-labelled E1; experiment: Gel filtration: binding of serum inhibitor to ¹²⁵I-labelled E1 in human serum; settings: 30 minutes at 37°C, Ultrogel AcA 44, ¹²⁵I-labelled E1 treated with the inhibitor
Experimental: To human serum was added ¹²⁵I-labelled E1, which was incubated for 30 minutes at 37°C. This was then subjected to gel filtration [Ultrogel AcA 44 (made by IBF Biotechnichs), ⌀ 1.5 x 55cm, developing solution: 0.1 M phosphate buffer (pH 7.1)]. The eluate was collected in 1-ml portions and the radioactivity in each fraction was measured.
When the human serum to which ¹²⁵I-labelled E1 not treated with Boc-TACK had been added was subjected to gel filtration, the ¹²⁵I-labelled E1 was all eluted in the fraction of its complex containing α₁-antitrypsin and α₂-macroglobulin (Fig. 1-a).

[3] = system: E1; experiment: Radioimmunoassay standard curves of Boc-TACK-treated E1 and untreated E1; type: binding, human; settings: standard curve of Boc-TACK-treated E1 compared with untreated E1
Experimental: as §1
To evaluate the effect of Boc-TACK on the immunological reaction of E1, standard curves were drawn of Boc-TACK-treated E1 and untreated E1, and then comparison was made between the two.

[4] = system: elastase-1; settings: prior art statement; cited from earlier work

SMILES	binding rate with increases in serum inhibitor ([1]; α₁-antitrypsin or α₂-macroglobulin solution in place of standard E1, inhibitor in measuring buffer solution)	binding rate with α₂-macroglobulin in a high concentration ([1]; α₂-macroglobulin in a high concentration, 0.1 mM Boc-TACK in measuring buffer solution)	elution of ¹²⁵I-labelled E1 in free fraction or complex fraction [2]	effect on the immunological reaction of E1 [3]	capability of inhibiting the binding of α₁-antitrypsin and α₂-macroglobulin to elastase-1 [4]
CC(NC(=O)[C@H](C)NC(=O)[C@H](C)NC(=O)OC(C)(C)C)C(=O)CCl (some centres unmarked) [Boc-TACK, Nα-[N-(tert-butoxycarbonyl)alanyl]-N-(3-chloro-1-methyl-2-oxopropyl)alanineamide]	little change was observed in the binding rate	only a slight decrease	none of it was found in the complex fraction	did not affect the immunological reaction of E1 in any way	–
O=S(=O)(F)Cc1ccccc1 [PMSF, phenylmethanesulfonyl fluoride]	–	–	–	–	weak capability
